Data: ChEMBL document CHEMBL4483862, “Open-source discovery of chemical leads for next-generation chemoprotective antimalarials” (2018)

Tested on: Plasmodium berghei
Experiment: Luciferase/luciferin-expressing antifolate-resistant parasites were used to infect a culture of HepG2 cells that were pre-incubated with compounds. Infected hepatocytes emit light due to the luciferase reaction. Assay results are presented as the percent inhibition of light emission compared to control. […]
Assay type: functional
Settings: sporozoite; for IC50: read-out: LUCIFERASE INFECTION ASSAY - IC50; for IC90: read-out: LUCIFERASE INFECTION ASSAY - IC90

| Compound | IC50 [µM] | IC90 [µM] |
| --- | --- | --- |
| CN(c1nc2ccccc2nc1O)C1CCCCC1 | > 10 | > 10 |
| Nc1cc(Cl)ccc1Oc1ccc2ccccc2c1 | > 10 | > 10 |
| CC(C)Cc1ccc(C(C)NC(=O)c2ccc(O)nc2)cc1 (stereo not given) | > 10 | > 10 |
| CN(CC(=O)Nc1ccc(F)c(F)c1F)c1cnccn1 | > 10 | > 10 |
| c1ccc2c(C3=NN=C(NC4CCCCC4)SC3)c[nH]c2c1 | > 10 | > 10 |
| Nc1ccc(SC(F)(F)F)cc1 | > 10 | > 10 |
| Cn1cccc1C(=O)OCC(=O)NCc1cccs1 | > 10 | > 10 |
| CN(C)C(=O)COC(=O)c1cccc(CN2C(=O)c3ccccc3C2=O)c1 | > 10 | > 10 |
| O=c1c2ccccc2cnn1-c1nc2ccccc2s1 | 0.212 | 1.01 |
| COc1ccc(-c2csc3ncnc(NC4CCN(CC(N)=O)CC4)c23)cc1 | 5.11 | 8.68 |
| Cc1ccc2nc(CN3CCCCC3c3nc4ccccc4s3)cn2c1 (stereo not given) | > 10 | > 10 |
| O=C(Nc1ncc(Cc2cc(F)cc(F)c2)s1)c1ccc2nc[nH]c2c1 | 2.9 | 6.19 |
| COc1ccc(Nc2nc(NCCO)c3ccccc3n2)cc1 | > 10 | > 10 |
| Cc1cc(NC(=O)CCNC(C)c2ccc(CC(C)C)cc2)no1 (stereo not given) | > 10 | > 10 |
| c1ccc2c(Nc3nc(C4CC4)cs3)ncnc2c1 | > 10 | > 10 |
| Cc1ccccc1CN1CCN(c2cc(=O)n3ccccc3n2)CC1 | 6.42 | > 10 |
| Cc1cc(C(=O)OCC(=O)NC2CCCCCCC2)c(C)n1-c1ccccc1 | > 10 | > 10 |
| Cc1cc(C(=O)NCCNC(=O)c2cccn2C)c2nc3n(c2n1)CCCCC3 | > 10 | > 10 |
| CC(=O)N(c1ccc(Cl)c(Cl)c1)c1nc(CN2CCCCCC2)cs1 | 4.55 | 9.28 |
| Cc1cnc(Nc2ncnc3ccccc23)s1 | > 10 | > 10 |
| Cc1cc2oc3c(c2cc1NS(=O)(=O)c1cccs1)CC(C)CC3 (stereo not given) | > 10 | > 10 |
| COc1cc(OC)c2[nH]c(C(=O)NCCc3ccc(-c4csc(C)n4)s3)cc2c1 | > 10 | > 10 |
| CC(c1ccc(-n2cncn2)cc1)N(C)c1ccc2nnnn2n1 (stereo not given) | > 10 | > 10 |

| Compound | IC50 [µM] | IC90 [µM] |
| --- | --- | --- |
| Cc1ccc(C)c(OCCCN2C(=O)NC(Cc3c[nH]c4ccccc34)C2=O)c1 (stereo not given) | > 10 | > 10 |
| COc1ccc(-c2cc(NC(=O)c3cc(Cl)c(Cl)[nH]3)ccc2OC)cc1 | 3.49 | 4.33 |
| O=C(Nc1ccc(-c2csc(NC(=O)c3c[nH]nc3-c3ccccc3)n2)cc1)c1ccccc1 | 2.42 | 7.36 |
| CCCn1c(SCc2ccccc2F)n[nH]c1=O | > 10 | > 10 |
| Cc1ccc(COC(=O)c2ccccc2S(=O)(=O)N2CCCCC2)cc1 | 9.7 | > 10 |
| CCc1ccc(C(NCC(=O)NC(=O)NC)C(C)C)cc1 (stereo not given) | > 10 | > 10 |
| O=C(Cc1ccccc1)OC1(C(F)(F)F)C(=O)Nc2c1ccc1ccccc21 (stereo not given) | > 10 | > 10 |
| COc1cc(NC(=O)CN2CC=C(c3c[nH]c4ccccc34)CC2)cc(OC)c1OC | > 10 | > 10 |
| COc1ccc(C(=O)Nc2ccc(N3CCOCC3)cc2)cn1 | > 10 | > 10 |
| OCc1cccc(Nc2nc(-c3ccsc3)nc3ccccc23)c1 | > 10 | > 10 |
| Cc1cccc(COC(=O)C2CCN(C3=NS(=O)(=O)c4ccccc43)CC2)c1 | > 10 | > 10 |
| CCCn1c(NC(=O)C2CC(=O)N(Cc3ccc(C)cc3)C2)nc2ccccc21 (stereo not given) | > 10 | > 10 |
| O=C(Nc1nc(-c2c[nH]c3ccccc23)cs1)c1coc(Br)c1 | > 10 | > 10 |
| Cc1nn(CC(C)C)c(C)c1CC(=O)NCc1ccccc1Cn1cccn1 | > 10 | > 10 |
| CNc1ccccc1C(C)(C)c1cc(-c2ccc(Cl)cc2)no1 | 4.84 | > 10 |
| CCC(C)(C)C1CCC(NC(=O)c2ccc(OC)c(OC)c2OC)CC1 (stereo not given) | > 10 | > 10 |
| Cc1cc2occ(CC(=O)Nc3ccc(N4CCN(C)CC4)nc3)c2cc1C(C)C | 9.57 | > 10 |
| O=C(NC1CC1)N1CCN(S(=O)(=O)c2ccc3c(c2)OCCCO3)CC1 | > 10 | > 10 |
| O=C(Nc1ccnn1Cc1cccc(Cl)c1)c1csc(-c2ccsc2)n1 | > 10 | > 10 |
| O=C(c1cccc(-c2nn[nH]n2)c1)N1CCC2CCCCC2C1 (stereo not given) | > 10 | > 10 |
| CN(CC(=O)Nc1nc2ccc(Cl)cc2s1)S(=O)(=O)c1ccc(C#N)cc1 | 5.71 | 8.36 |
| COc1ccc(N(CCC(N)=O)CC(=O)NC(C)c2ccccc2OC)cc1 (stereo not given) | > 10 | > 10 |
| O=C(Cc1cc(Cl)c2c(c1)OCCCO2)NCc1ccco1 | 6.35 | > 10 |

| Compound | IC50 [µM] | IC90 [µM] |
| --- | --- | --- |
| CC(NC(=O)COC(=O)COc1ccc2c(c1)CCC(=O)N2)c1ccco1 (stereo not given) | > 10 | > 10 |
| CC1N(C)c2ccc(/C=C/c3cc[n+](C)cc3)cc2C1(C)C (stereo not given) | 3.32 | 4.04 |
| CC(NC(=O)NC(=O)c1ccccc1)C1CC2CCC1C2 (stereo not given) | > 10 | > 10 |
| CCOc1ccc(CN(C)c2cc(-c3ccccc3)c3ccccc3n2)cc1OC | > 10 | > 10 |
| COc1ccc(NC(=O)c2cc(S(N)(=O)=O)ccc2Br)cc1Cc1ccccc1 | > 10 | > 10 |
| Cc1cc(C(=O)COc2ccc(-c3nnco3)cc2)c(C)n1-c1ccc(F)cc1 | 8.4 | > 10 |
| O=C(Nc1cccc(C#Cc2ccccc2)c1)c1ccoc1 | > 10 | > 10 |
| CNS(=O)(=O)c1cc(NS(=O)(=O)/C=C/c2ccccc2)ccc1C | > 10 | > 10 |
| COc1ccc(-n2cc(-c3ccccc3)c3c(NCc4cccnc4)ncnc32)cc1 | > 10 | > 10 |
| COc1ccc(C(C)(C)C)cc1NC(=O)c1ccc(NC(=O)Nc2ccccc2)s1 | 5.57 | 5.68 |
| COc1ccc(NC(=O)C(C(=O)Nc2ccc(OC)cc2)C23CC4CC(CC(C4)C2)C3)cc1 | 7.12 | > 10 |
| O=C(CSc1nnc(-c2ccncc2)[nH]1)NC1CCCc2ccccc21 (stereo not given) | > 10 | > 10 |
| COCCN(CCOC)C(=O)CSc1nnc(/C=C/c2ccccc2)[nH]1 | > 10 | > 10 |
| CCOc1cc(C(=O)NCCNC(=O)C(C)C)cc(OCC)c1OCC | > 10 | > 10 |
| O=C(Cc1csc(NC(=O)c2ccccc2)n1)Nc1ncccc1O | > 10 | > 10 |
| COc1cc2nc(NC(=O)c3[nH]c4c(c3C)C(=O)CCC4)sc2cc1OC | > 10 | > 10 |
| COC(=O)CCSc1nnc(Nc2ccc(OC(F)(F)F)cc2)s1 | > 10 | > 10 |
| O=C(COc1nnc2ccccn12)Nc1cccc2ccccc12 | > 10 | > 10 |
| CC(Nc1ccc(OC(F)(F)F)cc1)C(=O)Nc1ccc(C#N)c(Cl)c1 (stereo not given) | 8.9 | > 10 |
| NS(=O)(=O)c1cccc(NC(=O)CCc2ccccc2Cl)c1 | > 10 | > 10 |
| CC1CC1C(=O)Nc1cccc(S(=O)(=O)N(C)c2ccccc2)c1 (stereo not given) | > 10 | > 10 |
| COC(=O)c1c(C)[nH]c(-c2csc(N3CCCCC3)n2)c1C | > 10 | > 10 |
| O=C(Nc1cc(S(=O)(=O)N2CCCCCC2)ccc1OCC(F)(F)F)c1cccc2c[nH]nc12 | > 10 | > 10 |

| Compound | IC50 [µM] | IC90 [µM] |
| --- | --- | --- |
| Cc1ccc(C2=NNC(=NC3CC3)SC2)cc1 | 1.46 | > 10 |
| Cc1nc(Nc2ccc(Cl)cc2)sc1C(=O)Nc1ccccc1 | > 10 | > 10 |
| Cc1cc(C(=O)CN2C(=O)NC(C)(c3ccc(C(C)(C)C)cc3)C2=O)c(C)n1C (stereo not given) | > 10 | > 10 |
| Cc1ccc(Cn2c3nc(C#N)c(C#N)nc3c3c(=O)nc(C)[nH]c32)cc1 | > 10 | > 10 |
| Cc1ccc(-c2nc(SCCC(N)=O)[nH]c2-c2ccc(C)cc2)cc1 | > 10 | > 10 |
| Cc1nn(-c2ccccc2)c2sc(C(=O)N3c4ccccc4CC3C)cc12 (stereo not given) | > 10 | > 10 |
| O=C(CSc1nnnn1CC1CCCO1)NCc1ccc2c(c1)OCO2 (stereo not given) | > 10 | > 10 |
| COc1ccc(-n2ccnc2SCc2nc(N)c3ccccc3n2)cc1 | > 10 | > 10 |
| COc1ccc(C(=O)C2CCN(C(=O)c3cnc(C)cn3)CC2)cc1 | > 10 | > 10 |
| CCn1c(=O)c(=O)[nH]c2cc(C(=O)Nc3ccc(Oc4ccccc4)cc3)ccc21 | > 10 | > 10 |
| Fc1ccc(-c2c[n+](-c3ccccc3)c3n2CCCS3)cc1 | > 10 | > 10 |
| CCOC(=O)c1c(C)[nH]c(C(=O)Nc2ccnn2C2CCCC2)c1C | 6.86 | 6.13 |
| Cc1[nH]c2ccccc2c1C(c1ccccc1)N1CCN(C)CC1 (stereo not given) | > 10 | > 10 |
| COc1cccc(-c2csc(-c3nnc4n3-c3ccccc3SC4)n2)c1 | 2.69 | 3.9 |
| CCOc1ccc(Oc2ccc(S(=O)(=O)NC(C)c3ccncc3)cc2)cc1 (stereo not given) | 0.559 | 4.85 |
| CSc1nnc(Sc2nc(-c3cccnc3)nc3ccccc23)s1 | > 10 | > 10 |
| O=C(Nc1ccnn1-c1nc2ccccc2[nH]1)C(c1ccccc1)c1ccccc1 | 5.95 | 9.69 |
| c1nc(NCC23CC4CC(CC(C4)C2)C3)c2sccc2n1 | > 10 | > 10 |
| O=C(Nc1nc(CN2CCCCC2)cs1)c1ccc2[nH]c3c(c2c1)CCCC3 | > 10 | > 10 |
| CC(C)c1ccc(C(NCC(=O)NC(=O)NC2CCCC2)c2cccs2)cc1 (stereo not given) | > 10 | > 10 |
| C=CCn1c(COc2ccccc2F)nnc1Sc1cc(C)nc2ncnn12 | > 10 | > 10 |
